Source: patent US6008196A, “Perfluoroalkyl ketone inhibitors of elastase and processes for making the same” (Hoechst Marion Roussel, Inc., priority 1996, dated 1999)

Biological target: T1, Human Neutrophil Elastase (Homo sapiens, UniProt P08246)
T1 construct: Enzyme is purified from human sputum, although recently it has become commercially available; from tissue; host or cells: human sputum
T1 sequence (P08246 30-247 limits assumed): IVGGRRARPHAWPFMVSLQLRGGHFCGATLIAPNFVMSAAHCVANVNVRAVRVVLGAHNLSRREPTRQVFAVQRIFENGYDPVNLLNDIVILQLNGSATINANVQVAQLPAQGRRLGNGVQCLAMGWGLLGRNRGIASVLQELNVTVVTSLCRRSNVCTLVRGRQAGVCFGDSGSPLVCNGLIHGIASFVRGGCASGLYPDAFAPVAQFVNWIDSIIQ
Assay: Human neutrophil elastase assayed in vitro with N-MeOSuc-Ala-Ala-Pro-Val-p-nitroanilide as substrate
Type: biochemical
Conditions: enzyme purified from human sputum
Method: Human neutrophil elastase is assayed in vitro using N-MeOSuc-Ala-Ala-Pro-Val-p-nitroanilide, available commercially, as substrate. […] Enzyme is purified from human sputum, although recently it has become commercially available. Kinetic characterization of immediate inhibitors is by means of the Dixon plot, whereas the characterization of slow- and/or tight-binding inhibitors used data analysis techniques reviewed by Williams and Morrison. The synthesis and analytical use of a highly sensitive and convenient substrate of elastase is described in J. Bieth, B. Spiess and C. […] For the purposes of this table, MCBz refers to 4-(4-morpholinylcarbonyl)benzoyl and Pyr refers to 3-(3-pyridyl)propanoyl.

| Ki | SMILES |
| --- | --- |
| 590 nM | CC(C)C(NC(=O)[C@@H]1CCCN1C(=O)[C@@H](NC(=O)OC(C)(C)C)C(C)C)C(=O)C(F)(F)C(F)(F)C(F)(F)C(F)(F)F (stereo partly drawn) [Boc--Val--Pro--Val--CF2 CF2 CF2 CF3, N-[(1,1-dimethylethoxy)carbonyl]-L-valyl-N'-[3,3,4,4,5,5,6,6,6-nonafluoro-1-(1-methylethyl)-2-oxohexyl]-L-prolinamide] |
| 490 nM | CC(C)C(NC(=O)[C@@H]1CCCN1C(=O)[C@@H](NC(=O)OC(C)(C)C)C(C)C)C(=O)C(F)(F)C(F)(F)C(F)(F)F (stereo partly drawn) [Boc--Val--Pro--Val--CF2 CF2 CF3, N-[(1,1-dimethylethoxy)carbonyl]-L-valyl-N'-[3,3,4,4,5,5,5-heptafluoro-1-(1-methylethyl)-2-oxopentyl]-L-prolinamide] |
| 18 nM | CC(C)C(NC(=O)[C@@H]1CCCN1C(=O)[C@@H](NC(=O)c1ccc(C(=O)N2CCOCC2)cc1)C(C)C)C(=O)C(F)(F)C(F)(F)C(F)(F)F (stereo partly drawn) [MCBz--Val--Pro--Val--CF2 CF2 CF3, N-[4-(4-morpholinylcarbonyl)benzoyl]-L-valyl-N'-[3,3,4,4,5,5,5-heptafluoro-1-(1-methylethyl)-2-oxopentyl]-L-prolinamide] |
